{"source": "patent US20080262047A1", "about": "“Ppar-Gamma Agonists for Improvement of Cognitive Function in Apoe4 Negative Patients” (priority 2005, published 2008)", "key": {"[1]": {"test_system": "patients diagnosed with mild to moderate AD", "test": "ADAS-cog (cognitive Alzheimer's Disease Assessment Scale) in Alzheimer's patients", "assay_type": "in vivo, human", "settings": "for Cognitive function (ADAS-cog), in words / ADAS-cog change, in words: 24 weeks; for ADAS-cog change from baseline (FIG. 3), in words: course of the study", "procedure": "(§1) Analysis for the full intent to treat (ITT) population was performed on 511 subjects who were randomly allocated into one of four specific treatment regimes. Genotyping analysis was performed on 63% (323/511) of the ITT population.\n(§2) Patient population included Caucasian males and females between 50-85 years of age who had been diagnosed with mild to moderate AD, were not receiving any medications which could adversely prejudice the study (e.g. PPAR-gamma agonists or conventional AD medicaments) or had any other potentially prejudicial ailments (e.g. diabetes or major psychiatric disorders).\n(§3) Patients received either placebo or one of three dosage levels of extended release rosiglitazone provided once daily (2 mg, 4 mg and 8 mg tablets as described in Example 1). Patients were examined using the cognitive Alzheimer's Disease Assessment Scale (ADAS-cog; for further information see Rosen W G et al. Am. J. Psychiatry. 1984 141:1356-1364) and the Clinician's Interview-Based Impression of Change with caregiver information (CIBIC+; for further information see Knopman D S et al. Neurology 1994 44: 2315-2321); and secondary assessments were performed using: the Disability Assessment for Dementia (DAD, for further information see Gelinas L et al. Am J Occup Ther 1999 53: 471-81) and the Neuropsychiatric Inventory test (NPI, for further information see Cummings et al (1994) Neurology 44, 2308-2314) at the start of the study (baseline) and during the course of the study (after 8, 16 and 24 weeks of treatment).\n(§4) APOE genotype was determined using the TaqMan PCR-based method of McLeod et al 2001 infra.\n(§5) All statistics reflect last observed assessment carried forward (LOCF) measurements.\nIt should be noted that in the case of ADAS-cog higher scores indicate reduced cognitive function."}, "[2]": {"test_system": "patients diagnosed with mild to moderate AD", "test": "CIBIC+ (Clinician's Interview-Based Impression of Change with caregiver information) in Alzheimer's patients", "assay_type": "in vivo, human", "procedure": "as §1, §2, §3, §4, §5\nHigher CIBIC+ scores indicate a greater level of decline with scores below 4 denoting clinical improvement and scores above 4 denoting clinical decline."}, "dopaminergic cells": {"test_system": "dopaminergic cells", "settings": "acetaldehyde, MPTP; cited from earlier work"}, "[3]": {"test_system": "patients diagnosed with mild to moderate AD", "test": "Neuropsychiatric Inventory (NPI) test in Alzheimer's patients", "assay_type": "in vivo, human", "settings": "week 24", "procedure": "as §3\nSimilar results were identified using the Neuropsychiatric Inventory (NPI) test (Cummings et al (1994) Neurology 44, 2308-2314). A prospectively defined test for interaction between APOE4 carriage status and NPI scores at week 24 was significant ([…])."}, "[4]": {"test_system": "patients diagnosed with mild to moderate AD", "test": "Disability Assessment for Dementia (DAD) in Alzheimer's patients", "assay_type": "in vivo, human", "settings": "week 24", "procedure": "as §3\nSimilar results were identified using the Disability Assessment for Dementia (DAD) test (Gelinas L et al. Am J Occup Ther 1999 53: 471-81). A prospectively defined test for interaction between APOE4 carriage status and DAD scores at week 24 was significant (P=0.006)."}, "[5]": {"test_system": "individuals with mild cognitive impairment", "settings": "at three years; cited from earlier work"}, "[6]": {"test_system": "patients with moderate to severe AD", "settings": "cited from earlier work"}, "AD and MCI": {"test_system": "AD and MCI", "settings": "clinical trial; cited from earlier work"}}, "note": "Entries after “also recorded” stand apart in the source; their conditions may differ."}
{"compound": "CN(CCOc1ccc(CC2SC(=O)NC2=O)cc1)c1ccccn1", "note": "(stereo not drawn) [Rosi, 5-[4-[2-(N-methyl-N-(2-pyridyl)amino)ethoxy]benzyl]thiazolidine-2,4-dione]", "values": [{"measurement": "ADAS-cog change from baseline (FIG. 2), in words", "setting": "[1]; APOE4+ individuals, 2 mg, 4 mg or 8 mg, after 8 weeks", "value": "slight improvement"}, {"measurement": "ADAS-cog change from baseline (FIG. 2), in words", "setting": "[1]; APOE4+ individuals, 2 mg, after 16 weeks", "value": "greater decline than the placebo"}, {"measurement": "ADAS-cog change from baseline (FIG. 2), in words", "setting": "[1]; APOE4+ individuals, 4 mg and 8 mg, after 16 weeks, versus placebo", "value": "the same or better clinical status"}, {"measurement": "ADAS-cog change from baseline (FIG. 2), in words", "setting": "[1]; APOE4+ individuals, all three treatment arms, after 24 weeks", "value": "finish with a clinical decline"}, {"measurement": "Cognitive function (ADAS-cog), in words", "setting": "[1]; APOE4 heterozygotes (single APOE4 allele), listed as rosiglitazone", "value": "do not show any recognisable trend; also recorded: stabilisation in cognitive function"}, {"measurement": "ADAS-cog change, in words", "setting": "[1]; APOE4 heterozygotes, 2 mg", "value": "some decline"}, {"measurement": "ADAS-cog change, in words", "setting": "[1]; APOE4 heterozygotes, 4 mg and 8 mg", "value": "little change"}, {"measurement": "ADAS-cog change from baseline (FIG. 3), in words", "setting": "[1]; APOE4 heterozygotes, higher doses (4, 8 mg)", "value": "remained close to the baseline"}, {"measurement": "Cognitive function (ADAS-cog), in words", "setting": "[1]; APOE4 homozygotes (two APOE4 alleles), listed as rosiglitazone", "value": "relatively large positive change in ADAS-cog scores; also recorded: may experience a clinical decline"}, {"measurement": "ADAS-cog change from baseline (FIG. 3), in words", "setting": "[1]; APOE4 homozygotes", "value": "experienced a clinical decline"}, {"measurement": "ADAS-cog change from baseline (FIG. 2), in words", "setting": "[1]; APOE4− individuals, 2 mg, 4 mg or 8 mg, all time points (8, 16 and 24 weeks)", "value": "marked improvement"}, {"measurement": "Cognitive function (ADAS-cog), in words", "setting": "[1]; APOE4− patients (no APOE4 allele), listed as rosiglitazone", "value": "general trend of improvement in cognitive function; also recorded: clinically relevant improvement in cognitive function relative to placebo"}, {"measurement": "ADAS-cog effect of treatment, in words", "setting": "[1]; ITT population as a whole, 2, 4, 8 mg, listed as rosiglitazone", "value": "trend is not statistically significant; also recorded: non-statistically significant trend to a general improvement"}, {"measurement": "CIBIC+, in words", "setting": "[2]; APOE4 heterozygotes, 2 mg, 24 weeks", "value": "decline"}, {"measurement": "CIBIC+, in words", "setting": "[2]; APOE4 heterozygotes, 4 mg, 24 weeks", "value": "Less decline"}, {"measurement": "CIBIC+, in words", "setting": "[2]; APOE4 heterozygotes, 8 mg, 24 weeks", "value": "slight improvement"}, {"measurement": "CIBIC+, in words", "setting": "[2]; APOE4 homozygotes, 24 weeks, compared to placebo", "value": "slight improvement"}, {"measurement": "CIBIC+, in words", "setting": "[2]; APOE4− patients, 24 week period", "value": "slight improvement"}, {"measurement": "CIBIC+ difference between treatment groups and placebo, in words", "setting": "[2]; ITT population, 24 weeks", "value": "did not lead to a distinguishable difference"}, {"measurement": "CIBIC+ model adjusted, LSMean (SE)", "setting": "[2]; Table 13a (updated analysis, additional subjects), PGx ITT population, APOE4 copies 1, Rosi 8 mg (n = 23), after 24 weeks", "value": "3.70 (0.24)"}, {"measurement": "Protection of dopaminergic cells from toxic insults", "setting": "dopaminergic cells", "value": "can protect dopaminergic cells"}, {"measurement": "NPI, in words", "setting": "[3]; APOE4+ subjects", "value": "demonstrated no improvement"}, {"measurement": "NPI, in words", "setting": "[3]; APOE4− subjects", "value": "demonstrated improvement on NPI"}, {"measurement": "DAD, in words", "setting": "[4]; APOE4+ subjects", "value": "demonstrated no improvement"}, {"measurement": "DAD, in words", "setting": "[4]; APOE4− subjects", "value": "demonstrated improvement on DAD"}]}
{"compound": "COc1cc2c(cc1OC)C(=O)C(CC1CCN(Cc3ccccc3)CC1)C2", "note": "(stereo not drawn) [donepezil]", "values": [{"measurement": "Rate at which patients developed AD", "setting": "[5]", "value": "no separation between groups"}]}
{"compound": "CC12CC3CC(C)(C1)CC(N)(C3)C2", "note": "[memantine]", "values": [{"measurement": "Adverse effects", "setting": "[6]", "value": "low incidence of adverse effects"}, {"measurement": "Rate of deterioration", "setting": "[6]", "value": "significantly retard the rate of deterioration"}]}
{"compound": "CCc1ccc(CCOc2ccc(CC3SC(=O)NC3=O)cc2)nc1", "note": "(stereo not drawn) [pioglitazone, 5-[4-[2-(5-ethyl-2-pyridyl)ethoxy]benzyl]thiazolidine-2,4-dione]", "values": [{"measurement": "Protection of dopaminergic cells from toxic insults", "setting": "dopaminergic cells", "value": "can protect dopaminergic cells"}]}
{"compound": "CS(=O)(=O)c1ccc(C2=C(c3ccccc3)C(=O)OC2)cc1", "note": "[rofecoxib]", "values": [{"measurement": "Efficacy in AD and MCI", "setting": "AD and MCI", "value": "failed to show any efficacy"}]}
